These results are taken from ChEMBL document CHEMBL5608201, “Discovery and optimization of thiazole-based quorum sensing inhibitors as potent blockers of Pseudomonas aeruginosa pathogenicity” (Eur J Med Chem, 2024).

Structures are written as SMILES. pIC50: −log10 of the molar value. In brackets after ≈: the same amount, converted by molar mass.

The subject of data set [1] is Pseudomonas aeruginosa. In words: Antivirulence activity against Pseudomonas aeruginosa PA14 assessed as inhibition of pyocyanin biosynthesis incubated for 16 hrs under agitation by photometric analysis. The class given is functional, organism-based. The note with it: PA14, 16 h.
Data set [2] can be described thus: Metabolic stability in mouse liver microsomes assessed as half life at 1 uM measured after 30 mins by HPLC-MS/MS analysis. The format is ADME, Microsome. For orientation: Liver microsomes are vesicles of endoplasmic reticulum, rich in cytochrome P450 enzymes.
Data set [3] is described as follows: Kinetic aqueous solubility of the compound in PBS buffer incubated for 5 mins by turbidimetric aqueous solubility assay. The class given is physicochemical. The settings on record: read-out: Kinetic_solubility.
A short description of data set [4]: Lipophilicity, log D of the compound. The settings on record: octanol/water. The class given is physicochemical.
Data set [5] can be described thus: Cytotoxicity against human HepG2 cells assessed as viable cells. The class given is toxicity, cell-based. The note with it: read-out: LD50 (the source's name).
Data set [6] in a line: Metabolic stability in human liver S9 fraction assessed as half life. The class given is ADME, subcellular.
Data set [7] can be described thus: Cytotoxicity against human HepG2 cells assessed as viable cells at 25 uM relative to control. The class given is toxicity, cell-based. The note with it: read-out: Activity.
Data set [8] can be described thus: Cytotoxicity against human HEK293 cells assessed as viable cells. The class given is toxicity, cell-based. The settings on record: read-out: LD50 (the source's name).
The nature of data set [9]: Cytotoxicity against human HEK293 cells assessed as viable cells at 25 uM relative to control. The class given is toxicity, cell-based. The settings on record: read-out: Activity.
Data set [10] has as its target Voltage-gated inwardly rectifying potassium channel KCNH2 (Homo sapiens, UniProt Q12809). In words: Inhibition of hERG. The class given is toxicity. For orientation: hERG is a cardiac potassium channel; its block is linked to QT prolongation.
Data set [11] can be described thus: Plasma protein binding in human. The class given is ADME, cell-free. The settings on record: read-out: PPB.
Data set [12] in a line: Plasma protein binding in mouse. The format is ADME, cell-free. The settings on record: read-out: PPB.
Data set [13] has as its target Cytochrome P450 2D6 (Homo sapiens, UniProt P10635). In words: Inhibition of CYP2D6 (unknown origin). The format is ADME.
The target of data set [14] is T1, CYP1A (Homo sapiens, UniProt P04798+P05177).
T1 sequence (P04798 whole entry): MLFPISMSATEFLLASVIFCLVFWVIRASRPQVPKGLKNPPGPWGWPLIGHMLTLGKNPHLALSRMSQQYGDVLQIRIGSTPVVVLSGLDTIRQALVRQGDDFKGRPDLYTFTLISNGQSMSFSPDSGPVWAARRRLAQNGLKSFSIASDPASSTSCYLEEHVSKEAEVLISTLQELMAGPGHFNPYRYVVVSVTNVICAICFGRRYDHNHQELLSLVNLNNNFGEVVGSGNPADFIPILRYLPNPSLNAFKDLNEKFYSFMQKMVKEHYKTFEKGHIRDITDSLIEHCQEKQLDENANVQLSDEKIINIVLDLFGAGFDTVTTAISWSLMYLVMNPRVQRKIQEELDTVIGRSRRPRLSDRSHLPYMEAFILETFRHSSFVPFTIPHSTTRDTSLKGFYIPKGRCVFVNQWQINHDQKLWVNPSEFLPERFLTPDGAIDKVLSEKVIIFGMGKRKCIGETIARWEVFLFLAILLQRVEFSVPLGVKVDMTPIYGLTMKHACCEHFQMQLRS
T1 sequence (P05177 whole entry): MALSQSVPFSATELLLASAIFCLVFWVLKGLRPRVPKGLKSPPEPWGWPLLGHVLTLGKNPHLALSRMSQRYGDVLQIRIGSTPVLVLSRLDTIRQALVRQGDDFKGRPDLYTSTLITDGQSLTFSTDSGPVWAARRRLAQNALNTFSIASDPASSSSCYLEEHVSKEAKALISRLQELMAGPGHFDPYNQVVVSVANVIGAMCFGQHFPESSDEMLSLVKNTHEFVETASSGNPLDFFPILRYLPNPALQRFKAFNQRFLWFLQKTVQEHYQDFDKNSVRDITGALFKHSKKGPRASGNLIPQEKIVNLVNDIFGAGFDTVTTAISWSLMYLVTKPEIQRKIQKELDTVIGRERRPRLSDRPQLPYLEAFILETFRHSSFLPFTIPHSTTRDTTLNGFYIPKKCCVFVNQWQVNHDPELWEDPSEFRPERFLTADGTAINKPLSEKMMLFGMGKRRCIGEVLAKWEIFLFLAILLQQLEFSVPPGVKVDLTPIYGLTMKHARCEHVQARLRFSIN
In words: Inhibition of CYP1A (unknown origin). The class given is ADME, protein assay.

Data set [15] concerns the target Cytochrome P450 2C9 (Homo sapiens, UniProt P11712). In words: Inhibition of CYP2C9 (unknown origin). The format is ADME.
Data set [16] concerns the target T2, Transcriptional regulator MvfR (Pseudomonas aeruginosa PA14, UniProt A0A072ZLE6).
T2 sequence (A0A072ZLE6 whole entry): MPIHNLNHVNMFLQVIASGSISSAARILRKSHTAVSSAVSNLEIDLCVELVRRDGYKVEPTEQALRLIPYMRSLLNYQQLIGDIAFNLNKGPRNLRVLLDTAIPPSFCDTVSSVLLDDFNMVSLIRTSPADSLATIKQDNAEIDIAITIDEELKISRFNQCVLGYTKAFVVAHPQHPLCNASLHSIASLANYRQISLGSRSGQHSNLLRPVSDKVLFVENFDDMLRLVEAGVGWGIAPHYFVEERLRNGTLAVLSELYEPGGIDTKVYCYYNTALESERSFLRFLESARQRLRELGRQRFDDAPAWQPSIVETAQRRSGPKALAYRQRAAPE
In words: Inverse agonist activity at Pseudomonas aeruginosa PqsR extracted from Escherichia coli Dh5alpha co-expressing lacZ incubated with test compound in presence of pseudomonas quinolone signal (PQS) by ONPG/heterologous reporter gene assay.

Data set [17] is described as follows: Cytotoxicity against human HEK293 cells assessed as viable cells at 50 uM relative to control. The class given is toxicity, cell-based. The settings on record: read-out: Activity.
In data set [18] the target is Cytochrome P450 3A4 (Homo sapiens, UniProt P08684). In words: Inhibition of CYP3A4 (unknown origin). The format is ADME.
Sequence of Cytochrome P450 3A4 (P08684 whole entry): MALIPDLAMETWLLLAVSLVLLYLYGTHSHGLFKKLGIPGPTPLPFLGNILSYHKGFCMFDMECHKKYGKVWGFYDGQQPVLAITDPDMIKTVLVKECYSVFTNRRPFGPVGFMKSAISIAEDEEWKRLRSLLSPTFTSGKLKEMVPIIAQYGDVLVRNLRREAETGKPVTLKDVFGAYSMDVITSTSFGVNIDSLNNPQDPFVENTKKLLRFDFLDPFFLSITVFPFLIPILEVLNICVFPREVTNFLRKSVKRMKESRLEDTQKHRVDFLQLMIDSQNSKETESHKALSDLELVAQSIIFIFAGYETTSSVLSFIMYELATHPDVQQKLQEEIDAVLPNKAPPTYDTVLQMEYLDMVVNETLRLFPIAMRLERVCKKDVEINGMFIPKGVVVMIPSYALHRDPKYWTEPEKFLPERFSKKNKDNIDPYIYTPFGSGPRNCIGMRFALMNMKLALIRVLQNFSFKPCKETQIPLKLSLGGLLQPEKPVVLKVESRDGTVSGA
The target of data set [19] is Cytochrome P450 2C19 (Homo sapiens, UniProt P33261). In words: Inhibition of CYP2C19 (unknown origin). The class given is ADME.
Sequence of Cytochrome P450 2C19 (P33261 whole entry): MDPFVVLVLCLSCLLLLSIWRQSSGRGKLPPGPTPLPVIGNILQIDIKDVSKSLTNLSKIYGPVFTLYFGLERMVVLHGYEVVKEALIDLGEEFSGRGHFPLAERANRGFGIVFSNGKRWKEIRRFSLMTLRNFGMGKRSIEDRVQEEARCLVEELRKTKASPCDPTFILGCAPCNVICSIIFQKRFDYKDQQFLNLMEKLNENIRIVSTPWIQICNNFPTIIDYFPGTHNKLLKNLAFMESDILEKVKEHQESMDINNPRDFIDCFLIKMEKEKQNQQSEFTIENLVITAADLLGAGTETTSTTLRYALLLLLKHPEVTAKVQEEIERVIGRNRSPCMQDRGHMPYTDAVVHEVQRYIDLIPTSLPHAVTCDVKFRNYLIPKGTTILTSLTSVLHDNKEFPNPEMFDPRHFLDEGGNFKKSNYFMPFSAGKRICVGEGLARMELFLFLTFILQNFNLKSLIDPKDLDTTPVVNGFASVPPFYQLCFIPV
Data set [20] is described as follows: Selectivity ratio of LD50 for Cytotoxicity against human HEK293 cells to IC50 for Inverse agonist activity at Pseudomonas aeruginosa PqsR. The class given is toxicity, cell-based.

Sequence of Voltage-gated inwardly rectifying potassium channel KCNH2 (Q12809 whole entry): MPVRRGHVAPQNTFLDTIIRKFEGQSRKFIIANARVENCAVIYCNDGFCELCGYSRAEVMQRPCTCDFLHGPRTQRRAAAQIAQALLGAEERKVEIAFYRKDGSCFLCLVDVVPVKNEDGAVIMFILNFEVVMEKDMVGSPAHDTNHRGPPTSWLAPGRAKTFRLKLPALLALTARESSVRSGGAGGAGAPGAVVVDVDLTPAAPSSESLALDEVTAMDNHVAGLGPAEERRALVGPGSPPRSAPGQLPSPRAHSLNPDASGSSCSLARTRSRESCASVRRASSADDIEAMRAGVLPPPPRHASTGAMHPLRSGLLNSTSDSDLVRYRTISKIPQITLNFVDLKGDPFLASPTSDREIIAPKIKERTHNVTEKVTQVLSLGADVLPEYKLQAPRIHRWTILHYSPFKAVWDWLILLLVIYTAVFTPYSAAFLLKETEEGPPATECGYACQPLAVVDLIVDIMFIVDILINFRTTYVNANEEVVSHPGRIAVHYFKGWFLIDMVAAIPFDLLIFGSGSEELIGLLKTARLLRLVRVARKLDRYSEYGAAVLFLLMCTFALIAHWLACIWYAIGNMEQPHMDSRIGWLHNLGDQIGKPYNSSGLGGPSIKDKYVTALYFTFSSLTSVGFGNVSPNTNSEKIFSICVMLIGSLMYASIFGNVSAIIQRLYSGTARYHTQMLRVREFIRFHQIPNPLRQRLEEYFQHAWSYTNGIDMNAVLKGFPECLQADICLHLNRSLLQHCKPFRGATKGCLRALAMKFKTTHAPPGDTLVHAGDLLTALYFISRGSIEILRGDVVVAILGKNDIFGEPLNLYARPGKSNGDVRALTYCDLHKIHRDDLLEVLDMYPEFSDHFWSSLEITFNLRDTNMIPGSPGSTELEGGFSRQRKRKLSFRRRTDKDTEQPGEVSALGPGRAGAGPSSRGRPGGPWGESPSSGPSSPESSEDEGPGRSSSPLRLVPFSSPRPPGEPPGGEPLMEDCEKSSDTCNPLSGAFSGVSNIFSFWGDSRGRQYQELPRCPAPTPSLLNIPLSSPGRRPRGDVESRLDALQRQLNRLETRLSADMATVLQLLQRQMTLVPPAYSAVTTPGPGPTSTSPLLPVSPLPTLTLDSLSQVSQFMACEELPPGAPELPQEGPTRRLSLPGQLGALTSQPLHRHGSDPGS
Sequence of Cytochrome P450 2C9 (P11712 whole entry): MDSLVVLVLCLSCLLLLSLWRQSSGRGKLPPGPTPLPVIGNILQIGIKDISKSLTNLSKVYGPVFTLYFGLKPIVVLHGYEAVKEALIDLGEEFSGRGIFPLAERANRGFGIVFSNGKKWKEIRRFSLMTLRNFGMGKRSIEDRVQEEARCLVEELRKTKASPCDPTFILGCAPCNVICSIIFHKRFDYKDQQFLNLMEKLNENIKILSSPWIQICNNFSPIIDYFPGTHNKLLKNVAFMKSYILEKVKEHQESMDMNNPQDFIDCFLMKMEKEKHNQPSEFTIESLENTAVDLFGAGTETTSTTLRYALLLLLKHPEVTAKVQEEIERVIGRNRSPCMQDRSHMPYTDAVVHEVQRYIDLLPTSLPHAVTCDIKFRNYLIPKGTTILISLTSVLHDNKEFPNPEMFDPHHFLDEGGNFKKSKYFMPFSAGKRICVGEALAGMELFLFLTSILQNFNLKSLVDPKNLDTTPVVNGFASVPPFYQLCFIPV
Sequence of Cytochrome P450 2D6 (P10635 whole entry): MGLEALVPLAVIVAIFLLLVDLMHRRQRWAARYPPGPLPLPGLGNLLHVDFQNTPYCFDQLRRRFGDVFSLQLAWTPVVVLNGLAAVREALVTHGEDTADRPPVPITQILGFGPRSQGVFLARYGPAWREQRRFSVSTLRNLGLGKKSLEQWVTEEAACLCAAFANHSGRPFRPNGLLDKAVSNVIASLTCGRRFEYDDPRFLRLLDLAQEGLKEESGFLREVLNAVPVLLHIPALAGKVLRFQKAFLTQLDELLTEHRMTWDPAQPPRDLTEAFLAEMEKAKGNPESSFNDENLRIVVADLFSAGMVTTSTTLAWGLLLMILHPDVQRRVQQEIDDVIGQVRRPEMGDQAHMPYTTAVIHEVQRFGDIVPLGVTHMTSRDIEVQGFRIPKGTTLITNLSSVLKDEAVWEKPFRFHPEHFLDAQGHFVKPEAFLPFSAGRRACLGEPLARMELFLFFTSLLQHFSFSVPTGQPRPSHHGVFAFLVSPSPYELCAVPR

As for `FC(F)(F)c1cc(NCc2cn(-c3ccc(Oc4ccccc4)cc3)nn2)ccn1`, the negative logarithm of the IC50 (pIC50) (in general, the negative decadic logarithm of the IC50, by convention in mol/L) was 6.70 in data set [1]; less than 4.60 in data set [10]; less than 4.60 in data set [13]; less than 4.60 in [14]; less than 4.60 in data set [15]. In [2], the half-life (in general, the time in which the quantity being followed falls by half) at 1 µM was 10 min. In addition, the solubility kinetic at 5 min in data set [3] turned out to be 8 µM (≈ 3.29 µg/mL). The logD (in general, the decadic logarithm of the distribution of all forms, ionised or not, between an organic phase and buffer at a given pH) in data set [4] turned out to be 4.22. The CC50 in data set [5] and in data set [8] was roughly 25 µM in each case. Besides, the half-life in [6] is greater than 60 min. Further, the viability at 25 µM in data set [7] was 55%; in data set [9] it was 48%. Also, the fraction unbound in [11] and in data set [12] was less than 0.01 each time.

On to `CC(C)Oc1ccc(-c2ncc(CNc3ccnc(C#N)c3)s2)cc1Cl`, for which the pIC50 is 8.30 in data set [16]; 7.01 in data set [1]; 4.88 in data set [10]; less than 4.60 in [18]; less than 4.60 in data set [13]; less than 4.60 in data set [14]. Further, the pIC50 in [15] is less than 4.60; in [19], 4.67. For the same compound, in data set [2], the half-life at 1 µM amounted to 11 min. Besides, the solubility kinetic at 5 min in data set [3] was found to be 7 µM (≈ 2.69 µg/mL). In addition, the log distribution coefficient (logD) in data set [4] was found to be 4.83. Also, the CC50 was greater than 25 µM in [5] and roughly 50 µM in data set [8]. Moreover, in data set [6], the half-life is greater than 60 min. The viability at 25 µM in data set [7] came to 59%. Moreover, the viability at 50 µM in data set [17] came out at 51%. Further, the fraction unbound in data set [11] and in data set [12] was less than 0.01 each time. In data set [20], the selectivity ratio came out at 10000.

`CC(C)Oc1ccc(-c2ncc(CNc3ccnc(C(F)(F)F)c3)s2)cc1Cl`: the pIC50 in data set [16] is 8.10; in data set [1], 6.97; in data set [10] it was less than 4.60; in data set [18] it was less than 4.60; in [13] it was less than 4.60; in data set [14], less than 4.60. In addition, the pIC50 in [15] was 4.79; in [19] it was 4.77. The half-life at 1 µM in data set [2] amounted to 20 min. Also, in data set [3], the solubility kinetic at 5 min was 7 µM (≈ 3 µg/mL). In data set [4], this compound came in with a logD of 4.51. In addition, the CC50 in [5] and in data set [8] was roughly 25 µM in each case. The half-life in [6] is greater than 60 min. The viability at 25 µM in data set [7] was found to be 49%; in [9] it was 51%. The fraction unbound in data set [11] and in data set [12] was less than 0.01 each time.
